{"source": "paper PMC10044120", "about": "“Potent and selective covalent inhibition of the papain-like protease from SARS-CoV-2” (Nature Communications, 2023)", "type_in_all_cases": "cell-based", "key": {"[1]": {"test_system": "SARS-CoV-2 Delta (B.1.617.2)", "assay": "CPE assay, neutral red, Vero E6 cells with 2 μM CP-100356, Delta"}, "[2]": {"test_system": "SARS-CoV-2 Omicron (B.1.1.529)", "assay": "microbe, parasite or virus in culture"}, "[3]": {"test_system": "SARS-CoV-2 Delta (B.1.617.2)", "assay": "microbe, parasite or virus in culture"}}, "note": "Values joined by “and” are separate entries in the source; they are usually repeats but may differ in a detail not shown here. Identical values can stand only once."}
{"smiles": "COC(=O)/C=C/C(=O)NNC(=O)CCc1ccccc1C(=O)N[C@H](C)c1cccc2ccccc12", "note": "[Compound 7, methyl(R,E)-4-(2-(3-(2-((1-(naphthalen-1 yl)ethyl)carbamoyl)phenyl)propanoyl)hydrazineyl)-4-oxobut-2-enoate]", "values": [{"measurement": "Percent Cytopathic Effect (Neutral Red)", "setting": "[1]", "value": "49.9% and 76.0% and 99.5% and 99.2%"}, {"measurement": "Virus Titer", "setting": "[2]", "value": "2.5 CCID50/mL (Log10) and 3.0 CCID50/mL (Log10)"}, {"measurement": "Virus Titer", "setting": "[3]", "value": "4.5 CCID50/mL (Log10) and 4.7 CCID50/mL (Log10) and 5.0 CCID50/mL (Log10)"}]}
